Assay: In vitro release experiment (Pt by atomic absorption)
Format: physicochemical
Conditions: when no interaction with gelatin was created
Method: The thus resulting gelatin sheet of 2×2 cm following impregnation of the aqueous CDDP solution (water content: 97%) was placed in 10 ml of a phosphate buffer (PBS, pH 7.4) containing 0.1% Tween80, and shaken in a 37° C. incubator at 60 rpm/min. At a predetermined time, 5 ml of the supernatant was taken out. The same amount of 0.1% Tween80/PBS was immediately added to the sheet and put back in the incubator. Pt concentration in the samples was quantitatively determined three times using an atomic absorption photometer (Hitachi Model Z-8000, Hitachi, Ltd., Tokyo).

With `[NH2][Pt]([NH2])([Cl])[Cl]` [CDDP, cisplatin] the “time until CDDP is entirely released” value was “approximately 3 hrs”.

From patent US8771734B2, “Sustained-release hydrogel preparation” (Medgel Corporation, priority 2003, dated 2014)
